According to US12209075B2, “Pyridine-sulfonamide derivatives as sodium channel inhibitors” (GENENTECH, INC., priority 2018, dated 2025):
Structures can show the parent of a compound that is named as a salt.

biological target: hNav1.7 (Homo sapiens (Human), UniProt Q15858); experiment: Tritiated compound binding to membranes from cells expressing hNav1.7 and the β1 subunit (Nav1.7 LBA EVO); conditions: competitive binding vs [3H]compound, membranes with hNav1.7 and β1 subunit
Method: Example 64a. Tritiated Compound Binding to Membranes Isolated from Cells that Heterologously Express hNav1.7 and the β1 Subunit
Preparation of membranes containing recombinantly expressed sodium channels: Frozen recombinant cell pellets are thawed on ice and diluted to 4 times the cell pellet weight with ice cold 50 mM Tris HCl, pH 7.4 buffer. The cell suspensions are homogenized on ice using a motorized glass dounce homogeniser. Homogenates are further diluted 8.4 times with ice cold 50 mM Tris HCl, pH 7.4 buffer and then centrifuged at 200×g at 4° C. for 15 minutes. The supernatants are collected and centrifuged at 10000×g at 4° C. for 50 min. The pellets are then re-suspended in 100 mM NaCl, 20 mM Tris HCl, pH 7.4 buffer containing 1% v/v protease inhibitors (Calbiochem) and re-homogenized on ice. The homogenized membranes are then processed through a syringe equipped with a 26 gauge needle. Protein concentrations arer determined by Bradford Assay and the membranes are stored at −80° C.
Radioligand Binding Studies: Saturation experiments. A competitive NaV1.7 inhibitor having a methyl group is tritiated. Three tritiums are incorporated in place of methyl hydrogens to generate [^3H]compound. Binding of this radioligand is performed in 5 mL borosilicate glass test tubes at room temperature. Binding is initiated by adding membranes to increasing concentrations of [^3H]compound in 100 mM NaCl, 20 mM Tris HCl, pH 7.4 buffer containing 0.01% w/v bovine serum albumin (BSA) for 18 h. Non-specific binding is determined in the presence of 1 μM unlabeled compound. After 18 h, the reactants are filtered through GF/C glass fiber filters presoaked in 0.5% w/v polyethylene imine. Filters are washed with 15 mL ice cold 100 mM NaCl, 20 mM Tris HCl, pH7.4 buffer containing 0.25% BSA to separate bound from free ligand. [^3H]compound bound to filters is quantified by liquid scintillation counting.
Competitive binding experiments: Binding reactions are performed in 96-well polypropylene plates at room temperature for 18 h. In 360 μL, membranes are incubated with 100 pM [^3H]compound and increasing concentrations of Test Compound. Non-specific binding is defined in the presence of 1 μM unlabeled compound. Reactions are transferred and filtered through 96-well glass fiber/C filter plates presoaked with 0.5% polyethylene imine. The filtered reactions are washed 5 times with 200 μL ice cold buffer containing 0.25% BSA. Bound radioactivity is determined by liquid scintillation counting.
Data Analysis: For saturation experiments, non-specific binding is subtracted from total binding to provide specific binding and these values are recalculated in terms of pmol ligand bound per mg protein. Saturation curves are constructed and dissociation constants are calculated using the single site ligand binding model: Beq=(Bmax*X)/(X+Kd), where Beq is the amount of ligand bound at equilibrium, Bmax is the maximum receptor density, Kd is the dissociation constant for the ligand, and X is the free ligand concentration. For competition studies percent inhibition is determined and IC50 values are calculated using a 4 parameter logistic model (% inhibition=(A+((B−A)/(1+((x/C)^D)))) using XLfit, where A and B are the maximal and minimum inhibition respectively, C is the IC50 concentration and D is the (Hill) slope.
Example 64b. Tritiated Compound Binding to Membranes Isolated from Cells that Heterologous Express hNav1.7 and the β1 Subunit
Preparation of membranes containing recombinantly expressed sodium channels: Following the procedure described in 31a, and making modifications as required to: centrifuge supernatants at 100000×g instead of 10000×g; re-suspend pellets in a buffer containing 0.01% BSA in addition to 100 mM NaCl, 20 mM Tris HCl, pH 7.4 buffer, and 1% v/v […]; and storing membranes at −80° C. in single use aliquots instead of pooled. […]

Chain of hNav1.7 (Q15858 whole entry, looked up): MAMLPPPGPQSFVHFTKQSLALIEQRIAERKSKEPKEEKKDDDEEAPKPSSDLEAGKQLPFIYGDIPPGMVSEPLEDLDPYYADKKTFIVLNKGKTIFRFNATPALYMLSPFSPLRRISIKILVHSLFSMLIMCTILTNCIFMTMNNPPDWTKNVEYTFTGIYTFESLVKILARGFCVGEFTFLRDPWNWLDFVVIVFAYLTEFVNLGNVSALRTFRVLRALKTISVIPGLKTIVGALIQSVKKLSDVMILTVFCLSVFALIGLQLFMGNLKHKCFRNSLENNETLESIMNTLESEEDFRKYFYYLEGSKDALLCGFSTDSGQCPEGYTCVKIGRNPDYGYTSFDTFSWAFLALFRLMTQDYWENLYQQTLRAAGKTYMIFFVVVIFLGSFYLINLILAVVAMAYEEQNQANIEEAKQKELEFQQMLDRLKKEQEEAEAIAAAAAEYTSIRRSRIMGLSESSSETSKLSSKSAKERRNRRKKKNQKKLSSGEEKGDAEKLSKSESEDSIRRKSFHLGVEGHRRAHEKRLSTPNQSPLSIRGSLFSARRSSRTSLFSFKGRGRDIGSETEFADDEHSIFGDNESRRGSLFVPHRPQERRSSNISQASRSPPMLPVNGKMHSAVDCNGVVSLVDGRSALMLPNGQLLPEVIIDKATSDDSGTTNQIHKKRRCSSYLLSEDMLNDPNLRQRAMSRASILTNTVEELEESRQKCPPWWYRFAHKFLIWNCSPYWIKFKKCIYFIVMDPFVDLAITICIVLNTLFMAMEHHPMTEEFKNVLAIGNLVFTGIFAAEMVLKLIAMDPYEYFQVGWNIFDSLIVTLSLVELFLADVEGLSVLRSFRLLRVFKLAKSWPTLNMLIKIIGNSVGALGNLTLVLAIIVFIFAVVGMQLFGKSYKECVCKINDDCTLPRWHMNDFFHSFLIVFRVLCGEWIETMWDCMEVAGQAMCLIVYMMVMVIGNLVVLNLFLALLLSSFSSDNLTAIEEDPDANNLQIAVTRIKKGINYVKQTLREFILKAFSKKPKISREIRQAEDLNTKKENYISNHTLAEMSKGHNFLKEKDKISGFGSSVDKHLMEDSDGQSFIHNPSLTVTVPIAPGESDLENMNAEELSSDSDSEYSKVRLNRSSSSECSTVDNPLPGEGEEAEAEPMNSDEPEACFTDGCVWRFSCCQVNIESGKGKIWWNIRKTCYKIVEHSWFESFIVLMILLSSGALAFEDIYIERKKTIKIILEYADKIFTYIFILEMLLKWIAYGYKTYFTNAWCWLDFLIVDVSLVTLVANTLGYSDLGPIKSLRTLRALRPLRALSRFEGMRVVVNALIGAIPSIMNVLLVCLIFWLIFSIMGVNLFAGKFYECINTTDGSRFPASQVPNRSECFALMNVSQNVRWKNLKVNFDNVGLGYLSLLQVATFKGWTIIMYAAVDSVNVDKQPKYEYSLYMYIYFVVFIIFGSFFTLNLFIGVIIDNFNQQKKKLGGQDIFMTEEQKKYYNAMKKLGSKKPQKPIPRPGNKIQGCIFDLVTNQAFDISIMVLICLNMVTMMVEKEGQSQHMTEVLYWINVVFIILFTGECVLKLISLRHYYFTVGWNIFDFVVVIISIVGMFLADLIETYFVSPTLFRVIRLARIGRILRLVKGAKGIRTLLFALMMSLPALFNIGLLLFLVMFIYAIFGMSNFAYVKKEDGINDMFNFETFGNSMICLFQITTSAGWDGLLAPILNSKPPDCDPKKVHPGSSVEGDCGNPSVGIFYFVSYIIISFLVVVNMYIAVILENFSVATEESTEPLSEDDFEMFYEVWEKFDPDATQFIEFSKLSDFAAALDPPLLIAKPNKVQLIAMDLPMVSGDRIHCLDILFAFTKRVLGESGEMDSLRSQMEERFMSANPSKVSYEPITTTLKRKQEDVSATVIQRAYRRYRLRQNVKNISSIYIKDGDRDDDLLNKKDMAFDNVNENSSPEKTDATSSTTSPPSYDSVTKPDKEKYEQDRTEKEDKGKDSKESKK
Chain of hNav1.7 (Q07699 whole entry partner, looked up): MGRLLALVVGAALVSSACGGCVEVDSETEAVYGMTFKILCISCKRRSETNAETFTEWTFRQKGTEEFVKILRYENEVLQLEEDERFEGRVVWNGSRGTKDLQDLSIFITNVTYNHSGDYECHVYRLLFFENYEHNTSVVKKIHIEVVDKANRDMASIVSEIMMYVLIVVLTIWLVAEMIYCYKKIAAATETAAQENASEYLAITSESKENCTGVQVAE

| Compound | IC50 [nM] |
| --- | --- |
| CN(C)[C@H]1C[C@@H](c2ccc(Cl)c(C(F)(F)F)c2)CC[C@@H]1Oc1ccc(S(=O)(=O)Nc2ccncn2)cn1 [Example 12, 6-(((1S,2S,4S)-4-(4-chloro-3-(trifluoromethyl)phenyl)-2-(dimethylamino)cyclohexyl)oxy)-N-(pyrimidin-4-yl)pyridine-3-sulfonamide formate] | 1.27 |
| Cc1nc(O[C@H]2CC[C@H](c3cc(C(F)(F)F)ccc3Cl)C[C@@H]2N(C)C)ccc1S(=O)(=O)Nc1ccncn1 [Example 38, 6-(((1S,2S,4S)-4-(2-chloro-5-(trifluoromethyl)phenyl)-2-(dimethylamino)cyclohexyl)oxy)-2-methyl-N-(pyrimidin-4-yl)pyridine-3-sulfonamide] | 1.77 |
| Cc1cc([C@H]2CC[C@H](Oc3ccc(S(=O)(=O)Nc4ccncn4)c(C)n3)[C@@H](N(C)C)C2)cc(C(F)(F)F)c1 [Example 58, 6-(((1S,2S,4S)-2-(dimethylamino)-4-(3-methyl-5-(trifluoromethyl)phenyl)cyclohexyl)oxy)-2-methyl-N-(pyrimidin-4-yl)pyridine-3-sulfonamide] | 2.86 |
| Cc1nc(O[C@H]2CC[C@H](c3cccc(CC(F)(F)F)c3)C[C@@H]2N(C)C)ccc1S(=O)(=O)Nc1ccncn1 [Example 59, 6-(((1S,2S,4S)-2-(dimethylamino)-4-(3-(2,2,2-trifluoroethyl)phenyl)cyclohexyl)oxy)-2-methyl-N-(pyrimidin-4-yl)pyridine-3-sulfonamide] | 1.59 |
| Cc1nc(O[C@H]2CC[C@H](c3cc(F)cc(C(F)(F)F)c3)C[C@@H]2N(C)C)ccc1S(=O)(=O)Nc1ccncn1 [Example 42, 6-(((1S,2S,4S)-2-(Dimethylamino)-4-(3-fluoro-5-(trifluoromethyl)phenyl)cyclohexyl)oxy)-2-methyl-N-(pyrimidin-4-yl)pyridine-3-sulfonamide] | 0.72 |
| O=S(=O)(Nc1ccncn1)c1ccc(N[C@H]2CC[C@H](c3cccc(C(F)(F)F)c3)C[C@@H]2N2CCCC2)nc1 [Example 16, N-(pyrimidin-4-yl)-6-(((1S,2S,4S)-2-(pyrrolidin-1-yl)-4-(3-(trifluoromethyl)phenyl)cyclohexyl)-amino)pyridine-3-sulfonamide formate] | 25.1 |
| CCc1nc(O[C@H]2CC[C@H](c3cccc(C(F)(F)F)c3)C[C@@H]2N(C)C)ccc1S(=O)(=O)Nc1ccncn1 [Example 33, 6-(((1S,2S,4S)-2-(Dimethylamino)-4-(3-(trifluoromethyl)phenyl)cyclohexyl)oxy)-2-ethyl-N-(pyrimidin-4-yl)pyridine-3-sulfonamide] | 1.54 |
| CN(C)[C@H]1C[C@@H](c2cccc(C(F)(F)F)c2)CC[C@@H]1Oc1ncc(S(=O)(=O)Nc2ccncn2)cc1F [Example 21, 6-(((1S,2S,4S)-2-(Dimethylamino)-4-(3-(trifluoromethyl)phenyl)cyclohexyl)oxy)-5-fluoro-N-(pyrimidin-4-yl)pyridine-3-sulfonamide] | 9.17 |
| Cc1ccc([C@H]2CC[C@H](Oc3ccc(S(=O)(=O)Nc4ccncn4)c(C)n3)[C@@H](N(C)C)C2)cc1C(F)(F)F [Example 56, 6-(((1S,2S,4S)-2-(dimethylamino)-4-(4-methyl-3-(trifluoromethyl)phenyl)cyclohexyl)oxy)-2-methyl-N-(pyrimidin-4-yl)pyridine-3-sulfonamide formate] | 1.32 |
| Cc1nc(O[C@H]2CC[C@H](c3ccc(Cl)c(C(F)(F)F)n3)C[C@@H]2N(C)C)ccc1S(=O)(=O)Nc1ccncn1 [Example 62, 6-(((1S,2S,4S)-4-(5-chloro-6-(trifluoromethyl)pyridin-2-yl)-2-(dimethylamino)-cyclohexyl)oxy)-2-methyl-N-(pyrimidin-4-yl)pyridine-3-sulfonamide] | 1.89 |
| O=S(=O)(Nc1ccncn1)c1cnc(O[C@H]2CC[C@H](c3cccc(C(F)(F)F)c3)C[C@@H]2N2CCCCC2)c(Cl)c1 [Example 19, 5-chloro-6-(((1S,2S,4S)-2-(piperidin-1-yl)-4-(3-(trifluoromethyl)phenyl)cyclohexyl)oxy)-N-(pyrimidin-4-yl)pyridine-3-sulfonamide] | 0.493 |
| CN(C)[C@H]1C[C@@H](c2cccc(C(F)(F)F)c2)CC[C@@H]1Nc1ncc(S(=O)(=O)Nc2ccncn2)cc1Cl [Example 4, 5-Chloro-6-(((1S,2S,4S)-2-(dimethylamino)-4-(3-(trifluoromethyl)phenyl)cyclohexyl)amino)-N-(pyrimidin-4-yl)pyridine-3-sulfonamide] | 8.3 |
| CN(C)[C@H]1C[C@@H](c2cccc(OC(F)(F)F)c2)CC[C@@H]1Oc1ncc(S(=O)(=O)Nc2ccncn2)cc1Cl [Example 13, 5-chloro-6-(((1S,2S,4S)-2-(dimethylamino)-4-(3-(trifluoromethoxy)phenyl)cyclohexyl)oxy)-N-(pyrimidin-4-yl)pyridine-3-sulfonamide] | 13.8 |
| Cc1nc(O[C@H]2CC[C@H](c3cccc(C(F)(F)F)c3)C[C@@H]2N(C)C2CCC2)ccc1S(=O)(=O)Nc1ccncn1 [Example 35, 6-(((1S,2S,4S)-2-(Cyclobutyl(methyl)amino)-4-(3-(trifluoromethyl)phenyl)cyclohexyl)oxy)-2-methyl-N-(pyrimidin-4-yl)pyridine-3-sulfonamide] | 1.12 |
| CN(C)[C@H]1C[C@@H](c2cccc(OC(F)(F)F)c2)CC[C@@H]1Oc1ccc(S(=O)(=O)Nc2ccncn2)cn1 [Example 25, 6-(((1S,2S,4S)-2-(dimethylamino)-4-(3-(trifluoromethoxy)phenyl)cyclohexyl)oxy)-N-(pyrimidin-4-yl)pyridine-3-sulfonamide formate] | 44.8 |
| CN(C)[C@H]1C[C@@H](c2cccc(C(F)(F)F)c2)CC[C@@H]1Oc1ncc(S(=O)(=O)Nc2ccncn2)cc1Br [Example 20, 5-bromo-6-(((1S,2S,4S)-2-(dimethylamino)-4-(3-(trifluoromethyl)phenyl)cyclohexyl)oxy)-N-(pyrimidin-4-yl)pyridine-3-sulfonamide formate] | 28.2 |
| Cc1nc(O[C@H]2CC[C@H](c3ccc(F)c(C(F)(F)F)c3)C[C@@H]2N(C)C)ccc1S(=O)(=O)Nc1ccncn1 [Example 45, 6-(((1S,2S,4S)-2-(Dimethylamino)-4-(4-fluoro-3-(trifluoromethyl)phenyl)cyclohexyl)oxy)-2-methyl-N-(pyrimidin-4-yl)pyridine-3-sulfonamide formate] | 0.913 |
| Cc1nc(O[C@H]2CC[C@H](c3cccc(OC(F)(F)F)c3)C[C@@H]2N2CCCC2)ccc1S(=O)(=O)Nc1ccncn1 [Example 30, 2-Methyl-N-(pyrimidin-4-yl)-6-(((1S,2S,4S)-2-(pyrrolidin-1-yl)-4-(3-(trifluoromethoxy)phenyl)-cyclohexyl)oxy)pyridine-3-sulfonamide] | 16.6 |
| Cc1nc(O[C@H]2CC[C@H](c3cccc(OC(F)(F)F)c3)C[C@@H]2N(C)C)ccc1S(=O)(=O)Nc1ccncn1 [Example 28, 6-(((1S,2S,4S)-2-(Dimethylamino)-4-(3-(trifluoromethoxy)phenyl)cyclohexyl)oxy)-2-methyl-N-(pyrimidin-4-yl)pyridine-3-sulfonamide] | 4.11 |
| CN(C)[C@H]1C[C@@H](c2cccc(C(F)(F)F)c2)CC[C@@H]1Nc1ccc(S(=O)(=O)Nc2ccncn2)nc1 [Example 5, 5-(((1S,2S,4S)-2-(Dimethylamino)-4-(3-(trifluoromethyl)phenyl)cyclohexyl)amino)-N-(pyrimidin-4-yl)pyridine-2-sulfonamide] | 66.4 |
| CN(C)[C@H]1C[C@@H](c2cccc(SC(F)(F)F)c2)CC[C@@H]1Oc1ccc(S(=O)(=O)Nc2ccncn2)cn1 [Example 63, 6-(((1S,2S,4S)-2-(Dimethylamino)-4-(3-((trifluoromethyl)thio)phenyl)cyclohexyl)oxy)-N-(pyrimidin-4-yl)pyridine-3-sulfonamide] | 0.635 |
